Changes are numbered by the printed parent chain. Like-named read-outs stand apart in the source and are kept apart here. Where a SMILES comes first, the peptide text is derived from it.
Tests used:
Experiment in all cases: biochemical
Type in all cases: binding
[1] = molecular target: T1, HLA-DP4 molecule DPA1*0103/DPB1*0402 (DP402) (Homo sapiens, UniProt P04440+P20036, A65V/A84D/A85E/L207M); conditions: for binding to the HLA-DP*0402 molecule: FIG. 1, in words, tracer bUNK1 10 nM
T1 construct: purified from various human B lymphocyte lines transformed with the Epstein Barr virus (EBV), which are homozygotes for DP; endogenous in cells
T1 sequence (P20036 29-260): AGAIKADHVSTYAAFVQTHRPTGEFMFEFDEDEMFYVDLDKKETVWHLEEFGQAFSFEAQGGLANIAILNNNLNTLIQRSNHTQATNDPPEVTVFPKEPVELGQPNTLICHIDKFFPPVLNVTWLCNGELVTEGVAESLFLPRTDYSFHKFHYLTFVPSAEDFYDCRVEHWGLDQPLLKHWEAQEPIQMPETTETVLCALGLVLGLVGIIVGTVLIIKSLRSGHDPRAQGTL
T1 sequence (P04440 30-258 A65V/A84D/A85E): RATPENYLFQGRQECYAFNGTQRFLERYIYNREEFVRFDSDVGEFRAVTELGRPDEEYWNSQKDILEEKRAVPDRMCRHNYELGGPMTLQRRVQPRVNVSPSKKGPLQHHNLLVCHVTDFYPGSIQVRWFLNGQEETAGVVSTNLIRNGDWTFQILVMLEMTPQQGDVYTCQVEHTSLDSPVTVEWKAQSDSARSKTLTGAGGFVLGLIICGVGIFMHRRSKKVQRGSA

[2] = molecular target: T2, HLA-DP4 molecule DPA1*0103/DPB1*0401 (DP401) (Homo sapiens, UniProt P04440+P20036); conditions: for binding to the HLA-DP*0401 molecule: FIG. 1, in words, tracer bUNK1 10 nM
T2 construct: purified from various human B lymphocyte lines transformed with the Epstein Barr virus (EBV), which are homozygotes for DP; endogenous in cells
T2 sequence (P20036 29-260): T1 sequence (P20036 29-260)
T2 sequence (P04440 30-258): T1 sequence (P04440 30-258 A65V/A84D/A85E) with V36A, D55A, E56A

[3] = molecular target: T3, HLA-DP4 molecule DPA1*0103/DPB1*0402 (DP402) (Homo sapiens, UniProt P04440+P20036)
T3 construct: purified from various human B lymphocyte lines transformed with the Epstein Barr virus (EBV), which are homozygotes for DP; endogenous in cells
T3 sequence (P20036 29-260): T1 sequence (P20036 29-260)
T3 sequence (P04440 30-258 A65V/A84D/A85E): T1 sequence (P04440 30-258 A65V/A84D/A85E)

[4] = IC50 (nM) 402, Table XIII, binding to DPB1*0402, competition binding assay
[5] = IC50 (nM) 401, Table XIII, binding to DPB1*0401, competition binding assay

Compound	Loss of binding to DP*0402 (ratio of the IC50 values for the mutant peptide and for the UNK1 peptide) [3]	Loss of binding to DP*0401 (ratio of the IC50 values for the mutant peptide and for the UNK1 peptide) [2]	further results
DVEVYRAVTPLGPPD [DQB 43-57, reference compound]	–	–	binding to the HLA-DP*0402 molecule [1]: do not bind; binding to the HLA-DP*0401 molecule [2]: do not bind
CC[C@H](C)[C@H](NC(=O)[C@H](CCCCN)NC(=O)[C@H](CC(C)C)NC(=O)[C@H](Cc1ccccc1)NC(=O)[C@H](CCCNC(=N)N)NC(=O)[C@H](CCC(=O)O)NC(=O)CNC(=O)[C@H](CO)NC(=O)[C@H](CCCNC(=N)N)NC(=O)[C@@H](NC(=O)[C@H](CCC(N)=O)NC(=O)[C@H](CCCNC(=N)N)NC(=O)[C@@H](NC(=O)[C@@H](NC(=O)[C@H](CCC(N)=O)NC(=O)[C@@H](NC(=O)CN)C(C)C)[C@@H](C)CC)C(C)C)[C@@H](C)CC)C(=O)N[C@@H](Cc1c[nH]c2ccccc12)C(=O)N[C@@H](CO)C(=O)N[C@@H](CCC(N)=O)C(=O)O [NS-p2, reference compound]	–	–	IC50 [1]: 40 nM; IC50 [2]: 40 nM
PKYVKQNTLKLAT [HA 306-318, reference compound]	–	–	binding to the HLA-DP*0402 molecule [1]: do not bind; binding to the HLA-DP*0401 molecule [2]: do not bind
EPRAPWIEQEGPEYWDQE [HCI 46-63, reference compound]	–	–	binding to the HLA-DP*0402 molecule [1]: do not bind; binding to the HLA-DP*0401 molecule [2]: do not bind
CC[C@H](C)[C@H](NC(=O)[C@@H](NC(=O)[C@H](CC(=O)O)NC(=O)[C@H](C)NC(=O)[C@H](CO)NC(=O)[C@@H](N)CC(N)=O)[C@@H](C)O)C(=O)N[C@@H](CO)C(=O)N[C@@H](CO)C(=O)N[C@@H](Cc1ccc(O)cc1)C(=O)N[C@@H](Cc1ccccc1)C(=O)N[C@H](C(=O)NCC(=O)N[C@@H](CCCCN)C(=O)N[C@@H](CCSC)C(=O)N[C@@H](Cc1ccc(O)cc1)C(=O)N[C@@H](Cc1ccccc1)C(=O)N[C@@H](CC(N)=O)C(=O)N[C@@H](CC(C)C)C(=O)O)C(C)C [73-90]	–	–	IC50 [1, 4]: > 10000 nM; IC50 ([1]; IC50 (nM) DP0402, Api m1 overlapping peptides, tracer bUNK 1-17 10 nM, pH 5, 24 h): > 10000 nM; IC50 [2, 5]: > 10000 nM; IC50 ([2]; IC50 (nM) DP0401, Api m1 overlapping peptides, tracer bUNK 1-17 10 nM, pH 5, 24 h): > 10000 nM
CC[C@H](C)[C@H](NC(=O)[C@H](CC(C)C)NC(=O)[C@@H](N)CC(C)C)C(=O)NCC(=O)N[C@@H](CS)C(=O)N[C@@H](Cc1c[nH]c2ccccc12)C(=O)N[C@@H](Cc1ccc(O)cc1)C(=O)N[C@@H](CS)C(=O)N[C@@H](CCCNC(=N)N)C(=O)N[C@@H](CCCNC(=N)N)C(=O)N[C@@H](CCCNC(=N)N)C(=O)N[C@@H](CC(N)=O)C(=O)NCC(=O)N[C@@H](Cc1ccc(O)cc1)C(=O)N[C@@H](CCCNC(=N)N)C(=O)N[C@@H](C)C(=O)N[C@@H](CC(C)C)C(=O)N[C@@H](CCSC)C(=O)N[C@@H](CC(=O)O)C(=O)N[C@@H](CCCCN)C(=O)O [MART1 41-60]	–	–	IC50 ([1]; DP*0402 IC50 (nM), Table XV, HLA-DP4-binding activity): > 10000 nM; IC50 [1, 4]: > 10000 nM; IC50 ([2]; DP*0401 IC50 (nM), Table XV, HLA-DP4-binding activity): > 10000 nM; IC50 [2, 5]: > 10000 nM
CC(C)C[C@H](NC(=O)[C@H](Cc1c[nH]c2ccccc12)NC(=O)[C@H](Cc1ccccc1)NC(=O)[C@H](CO)NC(=O)[C@@H](NC(=O)[C@@H](NC(=O)[C@H](Cc1ccccc1)NC(=O)[C@H](CC(N)=O)NC(=O)[C@H](CC(N)=O)NC(=O)[C@@H](N)Cc1ccccc1)[C@@H](C)O)C(C)C)C(=O)N[C@@H](CCCNC(=N)N)C(=O)N[C@H](C(=O)N1CCC[C@H]1C(=O)N[C@@H](CCCCN)C(=O)N[C@H](C(=O)N[C@@H](CO)C(=O)N[C@@H](C)C(=O)O)C(C)C)C(C)C [TT947-963] (H-FNNFTVSFWLRVPKVSA-OH)	–	–	IC50 [1]: 7 nM; IC50 [2]: 4.61 nM
KYFAAYQFEPLAA [UNK T8Y]	2.4	4.1	–
KYFAATQFEPYAA [UNK L13Y]	15	2	–
KYFAATQFEPEAA [UNK L13E]	8	11	–
KYFAARQFEPLAA [UNK T8R]	6.7	17	–
KYFAATQFEPLAK [UNK A15K]	1.4	1.7	–
KYKAATQFEPLAA [UNK F5K]	297	569	–
KKFAATQFEPLAA [UNK Y4K]	1	1.2	–
KYFAATQFEKLAA [UNK P12K]	1.4	1.8	–
KYFAATQNEPLAA [UNK F10N]	1809	2460	–
KYFAATQFEPNAA [UNK L13N]	10	17	–

From US20100324829A1, “METHOD OF SELECTING HLA-DP4 LIGANDS AND THE APPLICATIONS THEREOF” (priority 2001, published 2010)
